System: MM.1 S cells
Test: Cell cycle analysis by flow cytometry (subG1 fraction)
Assay type: cell-based
Settings: 10 μM, up to 4 hours
Description: MM1 S cells were incubated with 10 μM 8-NH2-adenosine 0.5, 1, 2, 4 or 24 hours. To determine the distribution of cells within the cell cycle, I×10^6 MM. I S cells were pelleted (500×g for 5 minutes at 4° C.), and washed twice in ice-cold PBS, fixed in ice-cold 70% ethanol, and stored at 4° C. until analyzed. Before analysis by flow cytometry, the fixed cells were pelleted, washed in PBS, and resuspended in ice-cold flow buffer (PBS containing 0.5% Tween 20, 15 μg/mL propidium iodide, and 5 μg/mL DNase-free RNase). The stained cells were analyzed using an Epics Profile II flow cytometer (Coulter Electronics, Inc., Hialeah, Fla.). FIG. 2 provides the results of this experiment. To ascertain whether the changes in phosphorylation levels of these key signaling molecules is a direct result of cell death, parallel cultures were assessed for cellular viability by cell cycle analysis. Cells undergoing apoptosis have a reduced DNA content caused by cleavage and loss of small DNA fragments. Therefore, apoptotic cells are identified as those cells in the subG1 fraction of the cell cycle.

## Nc1ncnc2c1nc(N)n2[C@@H]1O[C@H](CO)[C@@H](O)[C@H]1O [8-NH2-Ado, 8-amino-adenosine]
  subG1 fraction versus untreated cells: no differences
